Assay results from patent US11771685B2, “Compounds for the treatment of neurological or mitochondrial diseases” (MUSC FOUNDATION FOR RESEARCH DEVELOPMENT, priority 2018, dated 2023).
Values after ≈ are worked out from the molar mass of the structure shown.

Columns and labels:
[1] = Mini-Ames test (mutagenicity); type: cell-based; settings: in vitro
Brain tissue binding = type: in vitro ADME; settings: in vitro, read-out: Brain tissue binding (% bound)
[2] = Rotarod neurotoxicity test in mice; type: in vivo, mouse; settings: for Neurotoxicity (Rotorod assay), animals showing toxicity: 5% DMSO: 95% Neobee; for Rotarod (Tox) N/T, mice that fell off: 1 hr, 32 mA study
[3] = system: 6 Hz electrically-induced seizures in mice; assay: 6 Hz mouse seizure model; type: in vivo; settings: for Number of Animals Protected / Effective Dose / Time of Peak Effect: 5% DMSO: 95% Neobee; for protection against seizures, preliminary testing: toxicity by Rotarod assay and behavioral observations; for 6 Hz 32 mA N/T, mice protected / 6 Hz 44 mA N/T, mice protected: 1 hr
Description: In particular, using (i) electrical model to test for seizures in mice and, separately, (ii) in rat 6 Hz 40V model. More specifically, NT-102 was injected (i.p.) in 5% DMSO/95% Miglyol 840 as vehicle. […] […] The mice were administered the NT-102 at various doses and placed on the rotarod (i.e., “Rotarod (Tox)”) to test if the mice would fall off as a model of due to the effects of NT-102; for the “Rotarod(Tox)” results, the “NIT” indicates the number of mice that fell off the rotarod (e.g., for Rotarod(Tox) results, if N/T is 0/8, then zero out of eight mice fell off). […] […] The 44 mA electrical dosage was used since it is considered to be a model to test for medication-resistant epilepsy.

Zebrafish larvae = assay: In vivo toxicology in zebrafish larvae
Description: Zebrafish larvae, 7 days post-fertilization (dpf), were exposed to compounds at 20, 15, 10, and 5 μM, six larvae per compound. Animals were observed 1, 5, and 24 hr after dosing for overt toxicity (altered survival, morbidity, morphological deformity). Heart rate, behavior, and startle response were monitored at each time point.
Zebrafish (AB strain) were obtained from the Zebrafish International Resource Center (supported by P40 RR012546 from NIH—NCRR). Zebrafish were maintained and crossed according to standard methods (Westerfield, 2000). Fertilized eggs were collected and placed in E3 embryo medium and positioned in an incubator set at 28.5° C. with a 14/10-hr light/dark cycle (Kimmel et al., 1995). To determine the lethal dose of each compound, 96-well plates containing one zebrafish (7 days post-fertilization, dpf) per well in 100 μL of tank water were used. 100 μL of each compound (0.5-15 μM) was added to each well for 12 animals (one row) for a final volume of 200 μL. One row of larvae was used as dimethyl sulfoxide (DMSO)-only controls. […] All zebrafish studies were approved by the Medical University of South Carolina Institutional Animal Care and Use Committee (#180278) and performed in accordance with the guidelines.
Using a 96-well plate, 7 dpf zebrafish were placed one per well with 100 μL of tank water. 100 μL of each compound was then added to each well for 12 animals (one row) for a final volume of 200 μL. One row of zebrafish larvae was used as DMSO only controls.

corneal kindled mouse = assay: Mouse corneal kindled model; type: in vivo; settings: 5% DMSO: 95% Neobee
Description: Synthesis for both compounds has been successfully scaled up. The pharmacokinetic (PK) parameters of these two Vitamin K analogs were determined via intravenous, intraperitoneal and oral administration in mice, and preliminary in vitro ADMET parameters were assessed (Table 3). These compounds are Ames-negative, have hepatic stability greater than 1 hour, can be formulated in oral solution and IV injection solution, can be synthesized in greater than 1 mg quantities, and have established brain PK. However, brain tissue binding was high for both compounds (97-98%). Both 3 (NT-181) and 17 (NT-102) have been tested for efficacy in the 6 Hz mouse seizure model at 22 mA and 32 mA, the corneal kindled mouse model, and the rat in vitro spontaneous electrographic bursting model of pharmacoresistance (Table 4). […] Preliminary studies with this new formulation reveal excellent solubility with full protection in the 6 Hz mouse seizure model at 22 mA, and quantification of both compounds (using this new formulation) in this model at 22 mA, 32 mA and 44 mA, is being performed as well as retesting in the corneal kindled model. […] Rat PK assessments will be performed, and seizure protection assessed in rat models in the ADD workflow such as the 6 Hz model and lamotrigine-resistant amygdala kindled mode.

[4] = Aqueous solubility at pH 7.4; type: physicochemical; settings: pH 7.4, aqueous buffer; 50 mM phosphate buffer
[5] = In vivo pharmacokinetics in CD-1 mice; settings: male, CD-1, mouse, plasma, ip, 20 mg/kg, intraperitoneal 20 mg/kg, 5% DMSO: 95% neobee
[6] = system: 6 Hz 40 V electrically-induced seizures in rats; assay: Rat 6 Hz 40 V seizure model; type: in vivo
Description: In particular, using (i) electrical model to test for seizures in mice and, separately, (ii) in rat 6 Hz 40V model. More specifically, NT-102 was injected (i.p.) in 5% DMSO/95% Miglyol 840 as vehicle. Mice were challenged with 6 Hz 44 mA current to see if seizures would result. […] The Time of Peak Effect (TPE) was observed 1 hour. Additional data is shown below in Table 5. The mice were administered the NT-102 at various doses and placed on the rotarod (i.e., “Rotarod (Tox)”) to test if the mice would fall off as a model of due to the effects of NT-102; for the “Rotarod(Tox)” results, the “NIT” indicates the number of mice that fell off the rotarod (e.g., for Rotarod(Tox) results, if N/T is 0/8, then zero out of eight mice fell off). For the electrical stimulation data (i.e., “6 Hz 44 mA”), an electrical stimulation of 6 Hz 44 mA was administered. […] The 44 mA electrical dosage was used since it is considered to be a model to test for medication-resistant epilepsy.
The 6 Hz 40 V electrical stimulation amount was used because this electrical dosage is considered to be a rat model for medication-resistant epilepsy.

SMILES: CCC#CCNC1=CC(=O)c2ccccc2C1=O [Compound 3, 2-(Pent-2-yn-1-ylamino)naphthalene-1,4-dione]
- Mini-Ames test (mutagenicity) [1]: Ames-negative
- Mini-Ames test (mutagenicity) ([1]; listed as NT-181): Negative
- fraction unbound (Brain tissue binding): 0.02 to 0.03
- Neurotoxicity (Rotorod assay), animals showing toxicity [2]: 1/71 showed toxicity
- Number of Animals Protected ([3]; 22 mA, 100 mg/kg): 8/8 at 100 mg/kg
- Effective Dose ([3]; 22 mA): 80.60 (25-100) mg/kg
- Time of Peak Effect ([3]; 22 mA): 0.5 h
- Number of Animals Protected ([3]; 32 mA, 100 mg/kg): 0/7
- Number of Animals Protected ([3]; 32 mA, 300 mg/kg): 3/8
- Number of Animals Protected ([3]; 44 mA, 100 mg/kg): 0/8 at 100 mg/kg
- protection against seizures, preliminary testing [3]: displayed protection against seizures with few or no toxic events
- concentration lethal/toxic at 24 hr (Zebrafish larvae; 7 dpf larvae, 24 hr): above 5 μM
- Number of Animals Protected (corneal kindled mouse; 300 mg/kg): 0/8 at 300 mg/kg
- solubility [4]: 4.79 µg/mL (≈ 20 µM)
- AUC(0-inf) [5]: 478 ng·h/mL
- Cmax [5]: 147 ng/mL
- MRT inf [5]: 4.2 h
- Tmax [5]: 1 h

SMILES: CC(C)CCOC1=CC(=O)c2ccccc2C1=O [Compound 25, 2-(Isopentyloxy)naphthalene-1,4-dione]
- survival (Zebrafish larvae; 24 hr, highest concentrations): ⅔
- concentration with no overt toxicity (Zebrafish larvae; AB, zebrafish, in vivo): ≤ 10 µM

SMILES: CC(C)CCNC1=CC(=O)c2ccccc2C1=O [Compound 17, 2-(Isopentylamino)naphthalene-1,4-dione]
- Mini-Ames test (mutagenicity) [1]: Ames-negative
- Mini-Ames test (mutagenicity) ([1]; listed as NT-102): Negative
- fraction unbound (Brain tissue binding): 0.02 to 0.03
- Rotarod (Tox) N/T, mice that fell off ([2]; 50 mg/kg): 0/8
- Rotarod (Tox) N/T, mice that fell off ([2]; 100 mg/kg): 0/8
- Rotarod (Tox) N/T, mice that fell off ([2]; 200 mg/kg): 1/8
- Rotarod (Tox) N/T, mice that fell off ([2]; 300 mg/kg): 3/8
- Neurotoxicity (Rotorod assay), animals showing toxicity [2]: 0/72 showed toxicity
- 6 Hz 40 V N/T, rats protected ([6]; 200 mg/kg, 1 hr): 1/8
- 6 Hz 40 V N/T, rats protected ([6]; 250 mg/kg, 1 hr): 2/8
- 6 Hz 40 V N/T, rats protected ([6]; 300 mg/kg i.p., 0.25 hr): 3/8
- 6 Hz 40 V N/T, rats protected ([6]; 300 mg/kg i.p., 0.5 hr): 0/8
- 6 Hz 40 V N/T, rats protected ([6]; 300 mg/kg i.p., 1 hr): 5/8
- 6 Hz 40 V N/T, rats protected ([6]; 300 mg/kg i.p., 2 hr): 0/4
- 6 Hz 40 V N/T, rats protected ([6]; 300 mg/kg i.p., 4 hr): 0/4
- 6 Hz 40 V N/T, rats protected ([6]; 350 mg/kg, 1 hr): 6/8
- ED50 ([6]; Rattus norvegicus, 6 Hz 40 V): 293 mg/kg
- Time to peak result ([6]; i.p., 6 Hz 40 V): about one
- 6 Hz 32 mA N/T, mice protected ([3]; 50 mg/kg): 0/8
- 6 Hz 44 mA N/T, mice protected ([3]; 100 mg/kg i.p.): 0/8
- 6 Hz 32 mA N/T, mice protected ([3]; 100 mg/kg): 4/8
- 6 Hz 44 mA N/T, mice protected ([3]; 200 mg/kg i.p.): 2/8
- 6 Hz 32 mA N/T, mice protected ([3]; 200 mg/kg): 3/8
- 6 Hz 44 mA N/T, mice protected ([3]; 300 mg/kg i.p.): 4/8
- 6 Hz 32 mA N/T, mice protected ([3]; 300 mg/kg): 7/8
- 6 Hz 44 mA N/T, mice protected ([3]; 400 mg/kg i.p.): 8/8
- Time of Peak Effect (TPE) ([3]; 6 Hz 44 mA, i.p., 5% DMSO/95% Miglyol 840): 1 h
- Number of Animals Protected ([3]; 22 mA, 400 mg/kg): 8/8 at 400 mg/kg
- Effective Dose ([3]; 22 mA): 209.05 (25-400) mg/kg
- Time of Peak Effect ([3]; 22 mA): 0.25 h
- Number of Animals Protected ([3]; 32 mA, 400 mg/kg): 2/8 at 400 mg/kg
- ED50 ([3]; Mus musculus, 6 Hz 32 mA): 153 mg/kg
- protection against seizures, preliminary testing [3]: displayed protection against seizures with few or no toxic events
- Number of Animals Protected (corneal kindled mouse; 100, 300 and 400 mg/kg): 0/24 at 100, 300 and 400 mg/kg
- solubility [4]: 9.64 µg/mL (≈ 39.6 µM)
- AUC(0-inf) [5]: 1730 ng·h/mL
- Cmax [5]: 320 ng/mL
- MRT inf [5]: 4.39 h
- Tmax [5]: 1 h
